Measurements published in US8492349B2, “Analgesia with minimal tolerance and dependence by a mu opioid receptor agonist that also binds filamin A” (Pain Therapeutics, Inc., priority 2007, dated 2013).
Where two headings read alike, the source gives them in different places.

Key:
MOR-Gs coupling [1] = experiment: Chronic morphine-induced MOR Go-to-Gs coupling switch in organotypic striatal slice cultures; format: cell-based, rat; details: for effect on NLX-mediated prevention of cellular indices of morphine tolerance (Go-to-Gs switch and cAMP): 10 μM peptide added to morphine plus 10 pM NLX
Experimental: For determination of MOR-G protein coupling, slices were homogenated to generate synaptic membranes. […] Following centrifugation, striatal membrane lysates were immunoprecipitated with immobilized anti-Gαs/olf or -Gαo conjugated with immobilized protein G-agarose beads. The level of MOR in anti-Gαs/olf or -Gαo immunoprecipitates was determined by Western blotting using specific anti-MOR antibodies.

MOR = experiment: Stimulation of MOR screen; format: biochemical
Description: In that Table, the log P value is the logarithm of a compound's partition coefficient between n-octanol and water [log(coctanol/cwater)], and is a well established measure of the compound's […]. “C Log P” shown in the Table is a calculated Log P value that is obtained using a program copyrighted (1988-2008) by Pomona College and BioByte, Inc. of Claremont, Calif.

[2] = test system: other Go-coupled receptors; experiment: Stimulation of other Go-coupled receptors; format: biochemical; details: 0.1 μM screen
pS133-CREB = experiment: Acute morphine-induced CREB S133 phosphorylation in organotypic striatal slice cultures; format: cell-based, rat; details: for pS133CREB detection, treatment alone: without morphine; for pS133CREB level in striatal tissue: 100 μM
Experimental: CREB in the solubilized cytosol and nucleus was immunoprecipitated with an anti-CREB antibody (Santa Cruz) and the level of pS^133-CREB was then determined by Western blotting using a specific antibody directed against pS^133-CREB (Santa Cruz).

purified human FLNA = target: T1, purified human FLNA (Homo sapiens, UniProt P21333); experiment: [3H]NLX binding to immunopurified FLNA; details: for attenuation of [3H]NLX binding to purified human FLNA: 10 μM peptide, 500 pM [3H]NLX
T1 construct: made in house
Experimental: (§1) To determine the NLX binding site on FLNA, various overlapping peptides encoding the c-terminal section of FLNA were used to compete for [^3H]NLX binding to FLNA using either A7 cell membranes or purified FLNA from A7 or SK-N-MC cells. Peptides were prepared by Sigma-Genosys (The Woodlands, Tex.). The reaction mixture consisted of 100 μg A7 membranes or 2 μg purified FLNA, 500 pM [^3H]NLX, and 10 μM of either FLNA2550-2560, FLNA2556-2565, FLNA2561-2570, FLNA2566-2575 or FLNA2576-2581 in 500 μl binding medium. The reaction was carried out at 37° C. for 30 minutes and terminated by rapid filtration through GF/B membranes under vacuum. The filters were washed twice with 5 ml ice-cold binding medium, and [^3H]NLX retained on the filters was measured by liquid, scintillation spectrometry.

FLNA = FLNA (Homo sapiens, UniProt P21333); experiment: FLNA binding affinity screen
[3] = target: T2, FLNA in A7 cell membranes (Homo sapiens, UniProt P21333); experiment: [3H]NLX binding to membranes from FLNA-expressing A7 cells (competition); details: for displacement of [3H]NLX binding to A7 membranes: FIG. 3a; for attenuation of [3H]NLX binding to A7 cell membranes: 10 μM peptide, 500 pM [3H]NLX
T2 construct: expressed in transfected cells; host or cells: A7, a subclone of human melanoma M2, stably transfected with human FLNA cDNA; membranes
Experimental: To confirm FLNA as the high-affinity target of NLX, [^3H]NLX binding to the human melanoma cell line M2 and its subclone A7 was assessed. The M2 subclone lacks FLNA and MOR and its subclone A7 is stably transfected with human FLNA cDNA (obtained from Drs. Stossel and Ohta at Harvard Medical School).
Membranes prepared from A7 cells (50 μg) were incubated in binding medium consisting of 50 mM Tris HCl, pH 7.5; 100 mM NaCl; and protease and protein phosphatase inhibitors with 500 pM [^3H]NLX for 30 minutes at 37° C. Total incubation volume was 500 μl. Non-specific binding was defined by 1 μM NTX. […] Reactions were terminated by, rapid filtration through GF/B membranes under vacuum. The filters were washed twice with 5 ml ice-cold binding medium, and [^3H]NLX retained on the filters was measured by liquid scintillation spectrometry.
as §1
To determine the essential amino acid residue(s) within the NLX-interacting pentapeptide, four additional pentapeptides, each with one amino acid residue replaced by alanine, were used along with the correct FLNA2561-2565 pentapeptide to compete for [^3H]NLX binding to FLNA using 100 μg A7 cell membranes. Peptides were generated by Sigma-Genosys. The reaction mixture consisted of 500 pM [^3H]NLX, 100 μg A7 membranes, and 10 μM pentapeptide [AAKGL, (SEQ ID NO:13); VAKGL (SEQ ID NO:14); VAAGL (SEQ ID NO:12); VAKAL (SEQ ID NO:15) or VAKGA (SEQ ID NO:16)] in 500 μl binding medium. The reaction was conducted at 37° C. for 30 minutes and terminated by rapid filtration through GF/B membranes under reduced pressure. The filters were washed twice with 5 ml ice-cold binding medium, and [^3H]NLX retained on the filters was measured by liquid scintillation spectrometry.

MOR-Gs coupling [4] = experiment: Acute morphine-induced MOR Go-to-Gs coupling switch in organotypic striatal slice cultures; format: cell-based, rat; details: for effect on acute morphine-induced coupling switch by MOR: pre-treatment 10 μM peptide
Experimental: Tissues were harvested 5, 15 or 60 minutes after the drug exposure by centrifugation. For determination of MOR-G protein coupling, slices were homogenated to generate synaptic membranes and cytosolic fractions. Synaptic membranes (400 μg) were then solubilized with 0.5% digitonin/0.2% sodium cholate/0.5% NP-40 in 250 μl of immunoprecipitation buffer (25 mM HEPES, pH 7.5; 200 mM NaCl, 1 mM EDTA, 50 μg/ml leupeptin, 10 μg/ml aprotinin, 2 μg/ml soybean trypsin inhibitor, 0.04 mM PMSF and mixture of protein phosphatase inhibitors). Following centrifugation, striatal membrane lysates were immunoprecipitated with immobilized anti-Gαs/olf or -Gαo (Santa Cruz) conjugated with immobilized protein A-agarose beads (Pierce-Endogen). The level of MOR in anti-Gαs/olf or -Gαo immunoprecipitates was determined by Western blotting using specific anti-MOR antibodies.

[5] = cited from earlier work
[6] = co-treatment 100 pM with 100 μM morphine
[7] = pre-treatment 10 μM peptide, 100 μM morphine

T2 sequence (P21333 whole entry): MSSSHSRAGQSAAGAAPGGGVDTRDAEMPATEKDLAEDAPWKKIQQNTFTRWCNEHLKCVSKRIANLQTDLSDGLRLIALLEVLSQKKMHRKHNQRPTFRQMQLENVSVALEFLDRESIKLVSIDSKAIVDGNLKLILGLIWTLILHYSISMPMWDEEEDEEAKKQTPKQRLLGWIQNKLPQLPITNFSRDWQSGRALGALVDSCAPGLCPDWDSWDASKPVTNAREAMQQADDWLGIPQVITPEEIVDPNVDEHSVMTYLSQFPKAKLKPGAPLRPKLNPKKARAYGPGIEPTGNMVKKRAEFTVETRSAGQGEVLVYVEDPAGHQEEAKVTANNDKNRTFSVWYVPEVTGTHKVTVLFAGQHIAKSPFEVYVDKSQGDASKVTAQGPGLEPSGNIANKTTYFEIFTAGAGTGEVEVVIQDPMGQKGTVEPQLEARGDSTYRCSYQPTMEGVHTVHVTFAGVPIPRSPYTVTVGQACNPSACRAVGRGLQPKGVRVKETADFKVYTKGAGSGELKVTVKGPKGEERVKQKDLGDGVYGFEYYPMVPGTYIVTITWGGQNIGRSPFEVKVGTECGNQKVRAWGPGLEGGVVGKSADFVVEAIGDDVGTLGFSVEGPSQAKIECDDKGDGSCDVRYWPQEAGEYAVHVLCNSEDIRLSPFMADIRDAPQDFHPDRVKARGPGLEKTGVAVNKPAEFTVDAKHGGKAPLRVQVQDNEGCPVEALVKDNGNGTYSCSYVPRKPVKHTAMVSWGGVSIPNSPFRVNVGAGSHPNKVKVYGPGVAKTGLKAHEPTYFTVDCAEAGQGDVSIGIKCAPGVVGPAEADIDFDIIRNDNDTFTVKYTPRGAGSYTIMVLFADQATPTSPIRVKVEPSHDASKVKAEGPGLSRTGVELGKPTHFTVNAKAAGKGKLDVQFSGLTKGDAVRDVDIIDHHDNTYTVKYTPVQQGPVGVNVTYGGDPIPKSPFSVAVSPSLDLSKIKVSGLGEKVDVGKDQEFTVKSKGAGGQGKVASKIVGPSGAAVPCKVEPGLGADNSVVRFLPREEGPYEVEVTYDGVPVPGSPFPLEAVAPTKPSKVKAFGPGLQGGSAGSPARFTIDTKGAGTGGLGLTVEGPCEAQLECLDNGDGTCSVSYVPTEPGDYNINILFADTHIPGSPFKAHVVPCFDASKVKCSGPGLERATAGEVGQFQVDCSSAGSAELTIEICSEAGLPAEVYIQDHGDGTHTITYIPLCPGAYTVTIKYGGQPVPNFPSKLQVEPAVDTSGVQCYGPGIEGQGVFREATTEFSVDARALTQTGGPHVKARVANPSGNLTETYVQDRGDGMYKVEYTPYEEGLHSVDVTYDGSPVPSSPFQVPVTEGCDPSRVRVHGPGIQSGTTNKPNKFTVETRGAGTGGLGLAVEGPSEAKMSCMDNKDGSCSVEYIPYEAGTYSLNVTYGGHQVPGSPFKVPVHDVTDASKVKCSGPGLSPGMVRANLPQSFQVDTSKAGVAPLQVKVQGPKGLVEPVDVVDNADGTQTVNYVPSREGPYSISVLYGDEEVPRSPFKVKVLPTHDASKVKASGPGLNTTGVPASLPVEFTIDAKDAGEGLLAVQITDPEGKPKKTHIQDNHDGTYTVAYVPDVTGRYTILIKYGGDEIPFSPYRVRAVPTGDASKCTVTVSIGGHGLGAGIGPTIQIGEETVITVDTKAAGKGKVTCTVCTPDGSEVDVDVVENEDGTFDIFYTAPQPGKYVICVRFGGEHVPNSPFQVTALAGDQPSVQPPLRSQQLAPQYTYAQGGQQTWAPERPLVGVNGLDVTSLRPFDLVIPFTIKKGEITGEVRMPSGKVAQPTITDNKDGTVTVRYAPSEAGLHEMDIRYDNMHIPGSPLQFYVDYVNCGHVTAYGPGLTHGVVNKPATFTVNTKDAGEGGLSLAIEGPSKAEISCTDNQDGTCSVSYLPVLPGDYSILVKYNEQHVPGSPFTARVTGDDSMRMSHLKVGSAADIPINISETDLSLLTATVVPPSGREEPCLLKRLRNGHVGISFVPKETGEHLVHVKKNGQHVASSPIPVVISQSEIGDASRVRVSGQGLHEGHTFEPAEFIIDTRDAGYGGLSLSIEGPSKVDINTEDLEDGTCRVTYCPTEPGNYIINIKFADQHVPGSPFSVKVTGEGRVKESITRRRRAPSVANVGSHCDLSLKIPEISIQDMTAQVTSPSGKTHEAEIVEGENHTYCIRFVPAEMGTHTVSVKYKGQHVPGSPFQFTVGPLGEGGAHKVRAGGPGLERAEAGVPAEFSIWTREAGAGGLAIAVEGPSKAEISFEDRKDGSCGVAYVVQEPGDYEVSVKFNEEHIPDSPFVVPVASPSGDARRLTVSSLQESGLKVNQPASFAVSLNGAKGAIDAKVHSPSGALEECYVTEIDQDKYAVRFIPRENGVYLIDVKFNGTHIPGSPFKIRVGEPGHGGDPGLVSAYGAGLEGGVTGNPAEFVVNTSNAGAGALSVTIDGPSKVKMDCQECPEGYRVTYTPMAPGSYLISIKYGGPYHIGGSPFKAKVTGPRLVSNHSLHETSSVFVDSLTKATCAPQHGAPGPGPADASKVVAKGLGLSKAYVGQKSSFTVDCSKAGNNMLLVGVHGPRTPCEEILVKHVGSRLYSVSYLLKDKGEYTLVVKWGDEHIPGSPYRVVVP
FLNA, sequence (P21333 whole entry): as above
T1 sequence (P21333 whole entry): as above
Experimental for cAMP accumulation: Tissues were homogenized by sonication and protein precipitated with 1M TCA. The supernatant obtained after centrifugation was neutralized using 50 mM Tris, pH 9.0. The level of cAMP in the brain lysate was measured by a cAMP assay kit (PerkinElmer Life Science, Boston) according to manufacturer's instructions.

## FLNA2566-2575: overlapping peptide encoding the c-terminal section of FLNA (GLSKAYVGQK; UniProt P21333 2566-2575, looked up, fragment)
MOR-Gs coupling [1]
  effect on NLX-mediated prevention of cellular indices of morphine tolerance (Go-to-Gs switch and cAMP): not

## COC(OC)C12CCC(=O)C=C1CCC1C3CCC(OC(C)=O)C3(C)CCC12 (stereo not shown) [Compound 1]
MOR
  Stimulation of MOR at (at 0.1 μM): 79%
[2]
  Stimulation of other Go-coupled receptors: 19%

## C=CCN1CC[C@]23c4c5ccc(O)c4O[C@H]2C(=O)CC[C@@]3(O)[C@H]1C5 [Naloxone, naloxone]
pS133-CREB; [6]
  effect on acute morphine-induced pS133CREB signal: virtually abolished
pS133-CREB
  pS133CREB detection, treatment alone: did not result in pS^133CREB detection
Purified human FLNA; read-out: binding affinity for immunopurified FLNA
  Kd: ~43 pM
cAMP accumulation; 10 pM with 100 μM morphine
  effect on chronic morphine-induced attenuation of the DAMGO-induced reduction in cAMP production: blocked

## O=C1CC[C@@]2(O)[C@H]3Cc4ccc(O)c5c4[C@@]2(CCN3CC2CC2)[C@H]1O5 [Naltrexone, naltrexone]
pS133-CREB; [6]
  effect on acute morphine-induced pS133CREB signal: virtually abolished
pS133-CREB
  pS133CREB detection, treatment alone: did not result in pS^133CREB detection
FLNA
  Kd: 3.9 pM
[3]
  displacement of [3H]NLX binding to A7 membranes: robustly displaced
[3]; competition curve, 16 concentrations 0.2 pM to 1 μM, FIG. 4, read-out: IC50 for inhibition of [3H]NLX binding to membranes from FLNA-expressing A7 cells
  IC50: 43 pM
MOR-Gs coupling [4]; [6]
  effect on acute morphine-induced G protein coupling switch by MOR: prevented
MOR-Gs coupling [4]; without morphine
  effect on MOR coupling alone: had no effect
[5]; 3 ng/kg
  effect on acute rewarding effects of oxycodone: without effect
[5]; 0.03, 0.3 and 30 ng/kg
  effect on acute rewarding effects of oxycodone: blocked

## VAAGL (SEQ ID NO:12) [control peptide, FLNA2561-2565 withone mid-point alanine substitution]
pS133-CREB; [7]
  effect on acute morphine-induced pS133CREB signal: did not significantly diminish
MOR-Gs coupling [4]; 10 μM peptide, 100 μM morphine, 15 minutes
  Go coupling at 15 minutes: mildly preserved
MOR-Gs coupling [4]; 100 μM morphine
  effect on acute morphine-induced coupling switch by MOR: did not prevent

## FLNA2550-2560: overlapping peptide encoding the c-terminal section of FLNA (PGPGPADASKV; UniProt P21333 2550-2560, looked up, fragment)
MOR-Gs coupling [1]
  effect on NLX-mediated prevention of cellular indices of morphine tolerance (Go-to-Gs switch and cAMP): not

## C[C@@H]1CCC2[C@]3(C)COC(C)(C)OC3CC[C@@]2(C)C12CCC(CO)(CCO)O2 (stereo partly shown) [Compound 2]
MOR
  Stimulation of MOR at (at 0.1 μM): 67%
[2]
  Stimulation of other Go-coupled receptors: 11%

## COc1cc(CCC(O)CC2c3c(cc4c(c3OC)OCO4)CCN2C)ccc1O (stereo not shown) [Compound 3]
MOR
  Stimulation of MOR at (at 0.1 μM): 78%
[2]
  Stimulation of other Go-coupled receptors: 16%

## C[C@@H](NC(=O)[C@@H](N)Cc1ccc(O)cc1)C(=O)NCC(=O)N(C)[C@@H](Cc1ccccc1)C(=O)NCCO [DAMGO]
MOR
  Stimulation of MOR at (at 0.1 μM): 92%
[2]
  Stimulation of other Go-coupled receptors: 6%

## VAKGL (SEQ ID NO:14) [decoy pentapeptide]
pS133-CREB; [7]
  effect on acute morphine-induced pS133CREB signal: virtually abolished
MOR-Gs coupling [4]; 100 μM morphine
  effect on acute morphine-induced coupling switch by MOR: completely prevented

## CN1CC[C@]23c4c5ccc(O)c4O[C@H]2[C@@H](O)C=C[C@H]3[C@H]1C5 [morphine]
MOR-Gs coupling [1]; 100 μM, 1 hour twice daily for 7 days
  Go-to-Gs coupling switch by MOR after chronic treatment: induced a robust Go-to-Gs coupling switch
pS133-CREB; after 5 and 15 minutes of exposure
  pS133CREB level in striatal tissue: robust level
pS133-CREB; after 1 hour of exposure
  pS133CREB level in striatal tissue: only a residual level
[3]
  displacement of [3H]NLX binding to A7 membranes: not
cAMP accumulation; chronic 100 μM treatment
  effect on DAMGO-mediated reduction in cAMP accumulation: attenuated

## COc1ccccc1CC(=O)CC1c2c(cc3c(c2OC)OCO3)CC[N+]1(C)C (stereo not shown) [Compound 6]
MOR
  Stimulation of MOR at (at 0.1 μM): 91%
[2]
  Stimulation of other Go-coupled receptors: 23%

## FLNA2556-2565: overlapping peptide encoding the c-terminal section of FLNA (DASKVVAKGL; UniProt P21333 2556-2565, looked up, fragment)
Purified human FLNA
  attenuation of [3H]NLX binding to purified human FLNA: markedly attenuated
[3]
  attenuation of [3H]NLX binding to A7 cell membranes: markedly attenuated

## FLNA2561-2570: overlapping peptide encoding the c-terminal section of FLNA (VAKGLGLSKA; UniProt P21333 2561-2570, looked up, fragment)
MOR-Gs coupling [1]
  effect on NLX-mediated prevention of cellular indices of morphine tolerance (Go-to-Gs switch and cAMP): abolished
Purified human FLNA
  attenuation of [3H]NLX binding to purified human FLNA: markedly attenuated
[3]
  attenuation of [3H]NLX binding to A7 cell membranes: markedly attenuated

## COc1ccc(C(=O)CC2c3c(cc4c(c3OC)OCO4)CC[N+]2(C)C)c(OC)c1 (stereo not shown) [Compound 7]
MOR
  Stimulation of MOR at (at 0.1 μM): 64%
FLNA; read-out: FLNA affinity
  Kd: 2.86 pM
[2]
  Stimulation of other Go-coupled receptors: 21%

## COc1ccc(S(=O)(=O)N2CCC3(CC2)OCCN3S(=O)(=O)c2ccc(OC)cc2)cc1 [Compound 5]
MOR
  Stimulation of MOR at (at 0.1 μM): 91%
FLNA; read-out: FLNA affinity
  Kd: 8.65 pM
[2]
  Stimulation of other Go-coupled receptors: 11%
